Test results from paper PMC7059037, “Development of 1,2,4-Triazole-5-Thione Derivatives as Potential Inhibitors of Enoyl Acyl Carrier Protein Reductase (InhA) in Tuberculosis” (Iranian Journal of Pharmaceutical Research : IJPR, 2019).
Converted amounts (≈) assume the structure as drawn. Like-named read-outs stand apart in the source and are kept apart here.

Tests used:
[1] = target: Mtb InhA (enoyl acyl carrier protein reductase) (Mycobacterium tuberculosis, UniProt P9WGR1); experiment: Mtb InhA enzyme inhibition assay (fluorescence based); assay type: biochemical
Chain of Mtb InhA (enoyl acyl carrier protein reductase) (P9WGR1 whole entry, looked up): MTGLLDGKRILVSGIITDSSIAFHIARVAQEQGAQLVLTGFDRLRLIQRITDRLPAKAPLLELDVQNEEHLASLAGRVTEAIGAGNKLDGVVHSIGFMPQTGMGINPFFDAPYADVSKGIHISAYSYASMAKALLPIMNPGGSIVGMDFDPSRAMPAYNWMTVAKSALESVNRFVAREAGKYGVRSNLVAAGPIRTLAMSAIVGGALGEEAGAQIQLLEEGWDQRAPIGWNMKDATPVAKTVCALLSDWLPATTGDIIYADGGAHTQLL
Method: Mtb InhA enzyme inhibition assay (Fluorescence based assay)
The compounds were dissolved in 100% dimethyl sulfoxide (DMSO). […] The 50μL enzyme reaction contained PIPES- 30 mM, pH 7.5, NaCl - 50 mM, 0.005% Brij-35, DTT - 2mM, and EDTA- 0.1mM. The enzyme reaction was started by the addition of […] of dodecyl CoA synthesized in-house and the depletion of NADH was followed by measuring the fluorescence of NADH kinetically in the reaction for 30min at excitation at 340nm and emission at 420nm using Tecan Saffire II reader. The concentration at which 50% inhibition in enzyme activity was observed was reported as the IC50.

Mtb H37Rv strain = experiment: Mtb H37Rv assay, resazurin microtiter-based assay (REMA); assay type: cell-based, Mycobacterium tuberculosis; conditions: REMA plate method, 90% inhibition with respect to growth control
[2] = read-out: InhA IC50, InhA 1.25 nM, 0.050 mM NADH, NADH fluorescence

## Nn1c(-c2ccncc2)nn(CC(=O)Nc2ccc(Cl)cc2)c1=S [Compound 6f, 2-(4-Amino-(3-pyridin-4-yl)-5-thioxo-4,5-dihydro-1H[1,2,4]triazol-1-yl)-N-(4-chlorophenyl) acetamide]
other
  melting point: 218 to 220 °C
[1]; [2]
  IC50: 1.2 µM
Mtb H37Rv strain; Mycobacterium tuberculosis
  MIC: 12.5 µM (≈ 4.51 µg/mL)

## Cc1cccc2sc(NC(=O)Cn3nc(-c4ccncc4)n(N)c3=S)nc12 [Compound 6t, 2-(4-Amino-(3-pyridin-4-yl)-5-thioxo-4,5-dihydro-1H[1,2,4]triazol-1-yl)-N-(4-methylbenzothiazol-3-yl) acetamide]
other
  melting point: 243 to 245 °C

## Nn1c(-c2ccncc2)nn(CC(=O)Nc2ncccn2)c1=S [Compound 6r, 2-(4-Amino-(3-pyridin-4-yl)-5-thioxo-4,5-dihydro-1H[1,2,4]triazol-1-yl)-N-pyrimidin-2-yl acetamide]
other
  melting point: 205 to 207 °C

## Cc1cccc(NC(=O)Cn2nc(-c3ccncc3)n(N)c2=S)c1 [Compound 6i, 2-(4-Amino-(3-pyridin-4-yl)-5-thioxo-4,5-dihydro-1H[1,2,4]triazol-1-yl)-N-(3-methylphenyl)acetamide]
other
  melting point: 225 to 227 °C
[1]
  IC50: 0.12 µM
Mtb H37Rv strain; Mycobacterium tuberculosis
  MIC: 0.39 µM (≈ 0.133 µg/mL)

## O=C(Cn1nc(-c2ccncc2)oc1=S)Nc1ncc([N+](=O)[O-])s1 [Compound 7e, N-(5-nitrothiazol-2-yl)-2-(5-(pyridin-4-yl)-2-thioxo-1,3,4-oxadiazol-3(2H)-yl)acetamide]
other
  melting point: 254 to 256 °C
[1]
  IC50: 82 µM
Mtb H37Rv strain; Mycobacterium tuberculosis
  MIC: 100 µM (≈ 36.4 µg/mL)

## Cc1ccc(NC(=O)Cn2nc(-c3ccncc3)n(N)c2=S)cc1C [Compound 6g, 2-(4-Amino-(3-pyridin-4-yl)-5-thioxo-4,5-dihydro-1H[1,2,4]triazol-1-yl)-N-(3,4-dimethylphenyl) acetamide]
other
  melting point: 242 to 244 °C
[1]; [2]
  IC50: 0.19 µM
Mtb H37Rv strain; Mycobacterium tuberculosis
  MIC: 0.39 µM (≈ 0.138 µg/mL)

## Cc1cc(NC(=O)Cn2nc(-c3ccncc3)oc2=S)no1 [Compound 7b, N-(5-methylisoxazol-3-yl)-2-(5-(pyridin-4-yl)-2-thioxo-1,3,4-oxadiazol-3(2H)-yl)acetamide]
other
  melting point: 232 to 234 °C
[1]
  IC50: 24 µM
Mtb H37Rv strain; Mycobacterium tuberculosis
  MIC: 50 µM (≈ 15.9 µg/mL)

## Nn1c(-c2ccncc2)nn(CC(=O)Nc2ccc(F)cc2)c1=S [Compound 6m, 2-(4-Amino-(3-pyridin-4-yl)-5-thioxo-4,5-dihydro-1H[1,2,4]triazol-1-yl)-N-(4-fluorophenyl) acetamide]
other
  melting point: 227 to 229 °C

## Nn1c(-c2ccncc2)nn(CC(=O)Nc2cccc(C(F)(F)F)c2)c1=S [Compound 6e, 2-(4-Amino-3-(pyridin-4-yl)-5-thioxo-4,5-dihydro-1H[1,2,4]triazol-1-yl)-N-(3-trifluoromethylphenyl) acetamide]
other
  melting point: 242 to 244 °C
[1]; [2]
  IC50: 5.95 µM
Mtb H37Rv strain; Mycobacterium tuberculosis
  MIC: 12.5 µM (≈ 4.93 µg/mL)

## CCOc1ccc2nc(NC(=O)Cn3nc(-c4ccncc4)oc3=S)sc2c1 [Compound 7g, N-(6-ethoxybenzo[d]thiazol-2-yl)-2-(5-(pyridin-4-yl)-2-thioxo-1,3,4-oxadiazol-3(2H)-yl)acetamide]
other
  melting point: 252 to 254 °C
[1]
  IC50: > 100 µM
Mtb H37Rv strain; Mycobacterium tuberculosis
  MIC: > 100 µM

## Nn1c(-c2ccncc2)nn(CC(=O)Nc2cccc(Cl)c2)c1=S [Compound 6j, 2-(4-Amino-(3-pyridin-4-yl)-5-thioxo-4,5-dihydro-1H[1,2,4]triazol-1-yl)-N-(3-chlorophenyl) acetamide]
other
  melting point: 220 to 222 °C
[1]; [2]
  IC50: 3.1 µM
Mtb H37Rv strain; Mycobacterium tuberculosis
  MIC: 6.25 µM (≈ 2.26 µg/mL)

## Cc1cnc(NC(=O)Cn2nc(-c3ccncc3)oc2=S)s1 [Compound 7d, N-(5-methylthiazol-2-yl)-2-(5-(pyridin-4-yl)-2-thioxo-1,3,4-oxadiazol-3(2H)-yl)acetamide]
other
  melting point: 236 to 238 °C
[1]
  IC50: 67 µM
Mtb H37Rv strain; Mycobacterium tuberculosis
  MIC: 100 µM (≈ 33.3 µg/mL)

## Nn1c(-c2ccncc2)nn(CC(=O)Nc2ccc(Br)cc2F)c1=S [Compound 6c, 2-(4-amino-3-(pyridin-4-yl)-5-thioxo-4,5-dihydro-1H-1,2,4-triazol-1-yl)-N-(4-bromo-2-fluorophenyl)acetamide]
other
  melting point: 276 to 278 °C
[1]
  IC50: 6.15 µM
Mtb H37Rv strain; Mycobacterium tuberculosis
  MIC: 3.12 µM (≈ 1.32 µg/mL)

## COc1ccc(NC(=O)Cn2nc(-c3ccncc3)n(N)c2=S)cc1 [Compound 6d, 2-(4-Amino-3-(pyridin-4-yl)-5-thioxo-4,5-dihydro-1H[1,2,4]triazol-1-yl)-N-(4-methoxyphenyl) acetamide]
other
  melting point: 256 to 258 °C
[1]; [2]
  IC50: 10.8 µM
Mtb H37Rv strain; Mycobacterium tuberculosis
  MIC: 25 µM (≈ 8.91 µg/mL)

## Nn1c(-c2ccncc2)nn(CC(=O)Nc2ccccn2)c1=S [Compound 6o, 2-(4-Amino-(3-pyridin-4-yl)-5-thioxo-4,5-dihydro-1H[1,2,4]triazol-1-yl)-N-pyridin-2-yl acetamide]
other
  melting point: 212 to 214 °C
[1]; [2]
  IC50: 76 µM
Mtb H37Rv strain; Mycobacterium tuberculosis
  MIC: 100 µM (≈ 32.7 µg/mL)

## O=C(Cn1nc(-c2ccncc2)oc1=S)Nc1nccs1 [Compound 7c, 2-(5-pyridin-4-yl-2-thioxo-[1,3,4]oxadiazol-3-yl)-N-thiazol-2-yl acetamide]
other
  melting point: 244 to 246 °C

## Nn1c(-c2ccncc2)nn(CC(=O)Nc2ccccc2)c1=S [Compound 6a, 2-(4-Amino-3-pyridin-4-yl-5-thioxo-4,5-dihydro-[1,2,4]triazol-1-yl)-N-phenyl acetamide]
other
  melting point: 242 to 244 °C
[1]; [2]
  IC50: 0.68 µM
Mtb H37Rv strain; Mycobacterium tuberculosis
  MIC: 12.5 µM (≈ 4.08 µg/mL)

## Cc1ccc(NC(=O)Cn2nc(-c3ccncc3)n(N)c2=S)cc1 [Compound 6b, 2-(4-amino-3-(pyridin-4-yl)-5-thioxo-4,5-dihydro-1H-1,2,4-triazol-1-yl)-N-(p-tolyl)acetamide]
other
  melting point: 237 to 238 °C
[1]
  IC50: 0.09 µM
Mtb H37Rv strain; Mycobacterium tuberculosis
  MIC: 0.19 µM (≈ 0.0647 µg/mL)
Mtb H37Rv strain
  MIC: 0.19 µM (≈ 0.0647 µg/mL)

## NNC(=O)c1ccncc1 [INH, isoniazid, reference compound]
Mtb H37Rv strain; Mycobacterium tuberculosis
  MIC: 0.05 µM (≈ 0.00686 µg/mL)

## Cc1cc(NC(=O)Cn2nc(-c3ccncc3)n(N)c2=S)no1 [Compound 6s, 2-(4-Amino-(3-pyridin-4-yl)-5-thioxo-4,5-dihydro-1H[1,2,4]triazol-1-yl)-N-(5-methylisoxazol-3-yl) acetamide]
other
  melting point: 242 to 244 °C

## O=C(Cn1nc(-c2ccncc2)oc1=S)Nc1nc2ccccc2s1 [Compound 7f, 2-(5-pyridin-4-yl-2-thioxo-[1,3,4]oxadiazol-3-yl)-N-benzothiazol-2-yl acetamide]
other
  melting point: 206 to 208 °C

## Nn1c(-c2ccncc2)nn(CC(=O)Nc2ccc(C(F)(F)F)cc2)c1=S [Compound 6n, 2-(4-Amino-(3-pyridin-4-yl)-5-thioxo-4,5-dihydro-1H[1,2,4]triazol-1-yl)-N-(4-trifluoromethylphenyl) acetamide]
other
  melting point: 227 to 229 °C

## Cc1cnc(NC(=O)Cn2nc(-c3ccncc3)n(N)c2=S)s1 [Compound 6v, 2-(4-Amino-(3-pyridin-4-yl)-5-thioxo-4,5-dihydro-1H[1,2,4]triazol-1-yl)-N-(5-methylthiazol-2-yl) acetamide]
other
  melting point: 250 to 252 °C

## Cc1cccc(NC(=O)Cn2nc(-c3ccncc3)n(N)c2=S)n1 [Compound 6p, 2-(4-Amino-(3-pyridin-4-yl)-5-thioxo-4,5-dihydro-1H[1,2,4]triazol-1-yl)-N-(6-methylpyridin-2-yl) acetamide]
other
  melting point: 230 to 232 °C
[1]; [2]
  IC50: 86 µM
Mtb H37Rv strain; Mycobacterium tuberculosis
  MIC: 100 µM (≈ 34.1 µg/mL)

## Nn1c(-c2ccncc2)nn(CC(=O)Nc2nccs2)c1=S [Compound 6u, 2-(4-Amino-(3-pyridin-4-yl)-5-thioxo-4,5-dihydro-1H[1,2,4]triazol-1-yl)-N-thiazol-2-yl acetamide]
other
  melting point: 253 to 255 °C

## Cc1ccnc(NC(=O)Cn2nc(-c3ccncc3)n(N)c2=S)c1 [Compound 6q, 2-(4-Amino-(3-pyridin-4-yl)-5-thioxo-4,5-dihydro-1H[1,2,4]triazol-1-yl)-N-(4-methylpyridin-2-yl) acetamide]
other
  melting point: 217 to 219 °C

## COc1cccc(NC(=O)Cn2nc(-c3ccncc3)n(N)c2=S)c1 [Compound 6l, 2-(4-Amino-(3-pyridin-4-yl)-5-thioxo-4,5-dihydro-1H[1,2,4]triazol-1-yl)-N-(3-methoxyphenyl) acetamide]
other
  melting point: 222 to 224 °C

## O=C(Cn1nc(-c2ccncc2)oc1=S)Nc1ccccn1 [Compound 7a, 2-(5-pyridin-4-yl-2-thioxo-[1,3,4]oxadiazol-3-yl)-N-pyridin-2-yl acetamide]
other
  melting point: 216 to 218 °C

## Cc1ccc(NC(=O)Cn2nc(-c3ccncc3)n(N)c2=S)cc1Cl [Compound 6h, 2-(4-Amino-(3-pyridin-4-yl)-5-thioxo-4,5-dihydro-1H[1,2,4]triazol-1-yl)-N-(3-chloro-4-methylphenyl) acetamide]
other
  melting point: 214 to 216 °C
[1]; [2]
  IC50: 0.34 µM
Mtb H37Rv strain; Mycobacterium tuberculosis
  MIC: 6.25 µM (≈ 2.34 µg/mL)

## Nn1c(-c2ccncc2)nn(CC(=O)Nc2cc(C(F)(F)F)ccc2Cl)c1=S [Compound 6k, 2-(4-Amino-(3-pyridin-4-yl)-5-thioxo-4,5-dihydro-1H[1,2,4]triazol-1-yl)-N-(2-chloro-5-trifluoromethylphenyl) acetamide]
other
  melting point: 184 to 186 °C
